Assay results as given in patent publication US4060652A (priority 1976, dated 1977).

Assay: Solubility, stability and pH
Format: physicochemical
Conditions: for stability on exposure to air: solid
Procedure: The active principle of Tercuronium, viz., p,p"-bis-triethylammonio-n-terphenyl dibenzenesulphonate having the structure [drawing 1] is a new compound that has not been described in literature. […] A 0.0012 percent solution of the active principle in a 0.01 N solution of hydrochloric acid has a specific absorption spectrum in the U-V region, with a maximum at 285 ± 2 nm and a minimum at 237 ± 1 nm.
Distilled water should contain a stabilizing agent, namely 3 ml of a 0.1 N solution of HCl per liter of water. The solution is stirred, filtered, and filled into 1-ml ampoules made of neutral glass. The ampoules are sterilized with steam at a temperature of 100° C for thirty minutes. The pH of the solution after sterilization is 3.7 (determined potentiometrically).

**Q.** For CC[N+](CC)(CC)c1ccc(-c2ccc(-c3ccc([N+](CC)(CC)CC)cc3)cc2)cc1 [Tercuronium, p,p"-bis-triethylammonio-n-terphenyl dibenzenesulphonate], which solubility in water is on record?
**A.** readily soluble in water

**Q.** And the “stability on exposure to air” value?
**A.** slightly green when exposed to air

**Q.** And the “stability on exposure to air” value (listed as p,p"-bis-triethylammonio-p-terphenyl)?
**A.** becomes slightly green on exposture to air

**Q.** What about the “stability of aqueous solution” value (stabilizer 3 ml of 0.1 N HCl per liter of water) of the same molecule?
**A.** stable in the presence of a stabilizer
